# Test results reported in patent US20030027791A1, “Composition and method for reducing adverse interactions between phenothiazine derivatives and plasma using cyclodextrins” (Wyeth, priority 2001, published 2003).
# How the values were obtained:
# [1] = in vivo; cited from earlier work
# [2] = Precipitate formation when promethazine hydrochloride preparation is mixed with plasma in vitro; format: physicochemical; settings: mixing ratio not stated
# Description: Without being bound by any particular theory, it is believed that this precipitate formation could be related to the venous thrombosis found at the injection site, as well as the cause of other local adverse reactions involving promethazine hydrochloride injection. […] With a composition according to one or more of the embodiments set forth herein, it is expected that a promethazine hydrochloride solution given by the routes of i.v. and i.m. (intramuscular) injection would have fewer incidences of irritation and other adverse reactions at the site of injection.
# [3] = intravenous use; cited from earlier work
smiles,measurement,setting,value
"CC(CN1c2ccccc2Sc2ccccc21)N(C)C.Cl (racemic) [promethazine hydrochloride, 10H-Phenothiazine-10-ethanamine, N,N, α-trimethyl-, monohydrochloride, (±)-]",Plasma creatine kinase levels,[1],raise plasma creatine kinase levels
same,Precipitate formation when solution is mixed with plasma in vitro,[2],precipitates form immediately
same,Adverse reactions at the injection site,[3],some incidents of venous thrombosis at the injection site have been encountered
